Measurements as given in patent US20260076975A1, “TPK AGONIST AND METHOD FOR USING SAME TO TREAT NEURODEGENERATIVE DISEASES” (SHANGHAI RAISING PHARMACEUTICAL CO., LTD., priority 2022, published 2026).
pEC50: −log10 of the molar value. Read-outs that look alike come from different tables or passages of the source.

Target: TPK enzyme (Homo sapiens, UniProt Q9H3S4)
Assay: TPK enzyme activity test (TDP formation from thiamine and ATP, HPLC detection)
Type: biochemical
Experimental: The purpose of this example was to test the promoting effect of compounds on TPK enzyme activity and evaluate the in vitro activity of the compounds based on EC50 and Emax.
1.1) The constant-temperature water-bath shaker was pre-heated half an hour in advance at a pre-heating temperature of 37° C.
1.2) The stock solution of the compound to be tested was taken out, allowed to thaw at room temperature, and then diluted to the required concentration.
1.3) The required reagents were placed on ice to thaw.
2.1) For each reaction system, TPK enzyme solution, Tris-HCl buffer solution, and ATP solution were added. The concentration of ATP used was 1-500 mM. The above three solutions were formulated into a homogeneous mixture.
2.2) The mixture of the above three solutions was dispensed into centrifuge tubes. Then, the compound at the required concentration was added to each centrifuge tube. Finally, thiamine solution (1-100 μM) was added. After the addition of the above system was completed, the centrifuge tubes were tightly capped, inserted into a floating board, and placed in the constant-temperature water-bath shaker that had been pre-heated to 37° C. for incubation for 0.5-2.0 hours.
2.3) After the incubation was completed, perchloric acid stop solution was added and mixed well. Samples were taken into 1.5 mL centrifuge tubes and stored at −20° C.
3.1) The samples stored at −20° C. were taken out, thawed at room temperature, and then subjected to derivatization treatment. The samples were placed in centrifuge tubes, a potassium ferricyanide derivatization reagent was added, and finally phosphoric acid stop solution was added to stop the reaction.
3.2) The derivatized samples were placed in sample vials for liquid chromatography analysis, and the contents of TDP/thiamine were detected by high performance liquid chromatography. TKP enzyme activity=TDP (nM)/mg protein/min.
The effects of the compounds of the present invention on TPK enzyme activity at different concentrations were determined according to the above procedures.

[1] = promoting effect on TPK enzyme activity, calculated with the effect of DMSO on TPK enzyme activity as 100%, read-out: Emax
[2] = promoting effect on TPK enzyme activity

TPK enzyme, sequence (Q9H3S4 whole entry): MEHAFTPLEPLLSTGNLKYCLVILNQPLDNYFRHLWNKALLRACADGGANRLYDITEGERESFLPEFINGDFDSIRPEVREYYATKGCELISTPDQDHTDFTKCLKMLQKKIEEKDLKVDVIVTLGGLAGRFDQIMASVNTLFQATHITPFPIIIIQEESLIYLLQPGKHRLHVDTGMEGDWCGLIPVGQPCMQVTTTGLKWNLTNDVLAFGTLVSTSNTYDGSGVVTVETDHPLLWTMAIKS

## CCC1Oc2cc(S(=O)(=O)N(C)CC(=O)NCc3ccc(Cl)cc3)c(C)cc2NC1=O (centres unmarked) [Compound 143]
[1]
  Emax: 122%

## CN(CC(=O)NCc1ccc(F)cc1)S(=O)(=O)c1ccc2[nH]c(=O)ccc2c1 [Compound 144]
[1]
  Emax: 121%

## CN(CC(=O)NCc1ccc(Cl)cc1)S(=O)(=O)c1ccc2[nH]c(=O)ccc2c1 [Compound 145]
[1]
  Emax: 120%

## O=C(CN1CCN(c2ccc(F)cc2)CC1)NC(=O)NCCc1c[nH]c2ccc(F)cc12 [Compound 146]
[2]
  pEC50: 5.87
[1]
  Emax: 175%

## O=C(CCn1cnc2sccc2c1=O)N1CCN(c2cccc(C(F)(F)F)c2)CC1 [Compound 147]
[1]
  Emax: 147%

## Cc1cc(=O)oc2cc(OCC(=O)N3CCN(c4cccc(C(F)(F)F)c4)CC3)ccc12 [Compound 148]
[2]
  pEC50: 5.91
[1]
  Emax: 165%

## Cc1ccc(Cl)cc1N1CCN(CCCNC(=O)C2COc3ccccc3C2)CC1 (centres unmarked) [Compound 149]
[1]
  Emax: 182%

## COc1cccc2cc(C(=O)N3CCN(c4cccc(C(F)(F)F)c4)CC3)c(=O)oc12 [Compound 150]
[2]
  pEC50: 6.86
[1]
  Emax: 212%

## CCCc1cc(=O)n2nc(N3CCC(C(=O)NCc4ccc(CC)cc4)CC3)sc2n1 [Compound 151]
[2]
  pEC50: 5.47
[1]
  Emax: 155%

## CC(CNC(=O)COc1ccc2c(c1)CCC(=O)N2)N1CCCC1 (centres unmarked) [Compound 152]
[2]
  pEC50: 5.02
[1]
  Emax: 161%

## CC(C)C(CNC(=O)COc1ccc2c(c1)CCC(=O)N2)N1CCc2ccccc2C1 (centres unmarked) [Compound 153]
[2]
  pEC50: 5.10
[1]
  Emax: 201%

## O=C1COc2ccc(C(=O)COC(=O)C=Cc3ccc(S(=O)(=O)N4CCCCCC4)cc3)cc2N1 [Compound 154]
[1]
  Emax: 132%

## O=C1COc2ccc(C(=O)CSCCSCC(=O)c3ccc4c(c3)NC(=O)CO4)cc2N1 [Compound 155]
[1]
  Emax: 125%

## CC(NC(=O)Nc1nncs1)c1ccc2c(c1)CCC(=O)N2 (centres unmarked) [Compound 156]
[1]
  Emax: 120%

## O=C1CCc2cc(S(=O)(=O)N3CCN(c4cccc(C(F)(F)F)c4)CC3)ccc2N1 [Compound 157]
[2]
  pEC50: 5.58
[1]
  Emax: 155%

## CC(=O)N1CCCc2cc(C(=O)N3CCN(c4cccc(C(F)(F)F)c4)CC3)ccc21 [Compound 165, 1-(6-(4-(3-(trifluoromethyl)phenyl)piperazine-1-carbonyl)-3,4-dihydroquinolin-1(2H)-yl)ethan-1-one]
  Emax: 148%
[2]
  pEC50: 5.01

## CC(=O)N1CCCc2cc(C(=O)N3CCN(c4cccc(Cl)c4Cl)CC3)ccc21 [Compound 166, 1-(6-(4-(2,3-dichlorophenyl)piperazine-1-carbonyl)-3,4-dihydroquinolin-1(2H)-yl)ethan-1-one]
  Emax: 156%
[2]
  pEC50: 5.37

## CC(=O)N1CCCc2cc(C(=O)N3CCC(Cc4ccc(F)cc4)CC3)ccc21 [Compound 168, 1-(6-(4-(4-fluorobenzyl)piperidine-1-carbonyl)-3,4-dihydroquinolin-1(2H)-yl)ethan-1-one]
[2]
  pEC50: 5.27
[1]
  Emax: 151%

## COc1ccc(C(=O)NCCC(=O)N2CCN(c3cccc(Cl)c3Cl)CC2)cc1OC [Compound 169, N-(3-(4-(2,3-dichlorophenyl)piperazin-1-yl)-3-oxopropyl)-3,4-dimethoxybenzamide]
  Emax: 148%
[2]
  pEC50: 5.14

## COc1ccc(C(=O)NCCCC(=O)N2CCN(c3cccc(Cl)c3Cl)CC2)cc1OC [Compound 170]
  Emax: 156%
[2]
  pEC50: 5.36

## COc1ccc(C(=O)NCCCCC(=O)N2CCN(c3cccc(Cl)c3Cl)CC2)cc1OC [Compound 171, N-(5-(4-(2,3-dichlorophenyl)piperazin-1-yl)-5-oxopentyl)-3,4-dimethoxybenzamide]
  Emax: 127%

## COC(=O)c1cc(OC)c(OC)cc1C(=O)N1CCN(c2cccc(Cl)c2Cl)CC1 [Compound 173, methyl 2-(4-(2,3-dichlorophenyl)piperazine-1-carbonyl)-4,5-dimethoxybenzoate]
  Emax: 132%

## O=C(CCOCc1ccc(N2CCCCC2)nc1)NCCc1cccc2ccc(O)cc12 [Compound 178, N-(2-(7-hydroxynaphthalen-1-yl)ethyl)-3-((6-(piperidin-1-yl)pyridin-3-yl)methoxy)propanamide]
  Emax: 120%
